The results in this text go back to patent publication US7067549B2, “Pyrrolidone carboxamides” (Actelion Pharmaceuticals AG, priority 2001, dated 2006).

The target of this test is T1, mouse NPY-Y5 receptors (mNPY-Y5) (Mus musculus, UniProt O70342).
T1 construct: The full-length cDNA which contains the mouse NPY-Y5 (mNPY-Y5) receptor coding was amplified from mouse brain cDNA; expressed in transfected cells
T1 sequence (O70342 1-466): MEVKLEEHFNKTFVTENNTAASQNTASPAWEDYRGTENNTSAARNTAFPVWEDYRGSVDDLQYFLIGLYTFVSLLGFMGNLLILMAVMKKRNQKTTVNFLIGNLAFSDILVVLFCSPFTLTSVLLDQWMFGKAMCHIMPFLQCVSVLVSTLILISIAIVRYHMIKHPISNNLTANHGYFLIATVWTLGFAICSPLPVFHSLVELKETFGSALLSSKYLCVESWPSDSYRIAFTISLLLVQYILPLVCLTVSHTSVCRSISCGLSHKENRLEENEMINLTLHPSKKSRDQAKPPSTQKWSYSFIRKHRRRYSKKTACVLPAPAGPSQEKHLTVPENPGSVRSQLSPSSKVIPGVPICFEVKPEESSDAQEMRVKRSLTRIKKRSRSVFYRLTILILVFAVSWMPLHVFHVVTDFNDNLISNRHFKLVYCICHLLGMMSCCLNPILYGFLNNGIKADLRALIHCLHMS
Nature of the test: Radioligand competition binding (125I-PYY) on membranes of HEK293 cells expressing recombinant mouse NPY-Y5 receptor. Particulars: displacement of 100 pM 125I-labeled PYY, 1 h at 22° C., read-out: NPY5 IC50. From the text: The full-length cDNA which contains the mouse NPY-Y5 (mNPY-Y5) receptor coding was amplified from mouse brain cDNA using specific primers, which were custom-made on the basis of published sequences, and employing Pfu DNA polymerase (Stratagene). The amplification product was subcloned into a mammalian expression vector pcDNA3 using EcoRI and XhoI restriction sites. Positive clones were sequenced; one clone, which contained the published sequence, was selected for preparing stable cell clones.
Human embryonic kidney 293 (HEK293) cells were transfected with 10 μg of mNPY5 DNA using Lipofectamine reagent (Gibco BRL) in accordance with the manufacturer's instructions. Two days after the transfection, the geneticin selection (1 mg/ml) was initiated and several stable clones were isolated. One of the clones was used for further pharmacological characterization.
Human embryonic kidney cells (HEK293) which express recombinant mouse NPY-Y5 receptors (mNPY-Y5) were disrupted by being frozen/thawed three times in hypotonic Tris buffer (5 mM, pH 7.4, 1 mM MgCl2), after which they were homogenized and centrifuged at 72 000 G for 15 minutes. The precipitate was washed twice with Tris buffer (pH 7.4) containing 25 mM MgCl2, 250 mM sucrose, 0.1 mM phenylmethylsulfonyl fluoride and 0.1 mM 1,10-phenanthroline, then resuspended in the same buffer and stored in aliquots at −80° C. The protein was determined by the Lowry method using bovine serum albumin (BSA) as the standard.
The competition binding analysis was carried out in 250 μl of 25 mM Hepes buffer (pH 7.4, 2.5 mM CaCl2, 1 mM MgCl2, 1% bovine serum albumin and 0.01% sodium azide) which 5 μg of protein, 100 pM ^125I-labeled peptide YY (PYY) and 10 μl of a DMSO solution containing increasing quantities of DMSO solution containing unlabeled test compound. After a one-hour incubation at 22° C., the bound ligand was separated from the unbound ligand by means of filtration through a glass fiber filter. Nonspecific binding was determined in the presence of 1 μM unlabeled PYY. Specific binding is defined as the difference between total binding and nonspecific binding. An IC50 value is defined as the concentration of the antagonist which displaces 50% of the ^125I-labeled […]. This concentration is determined by linear regression analysis following logit/log transformation of the binding values.
Background: Displacement assays read how much labelled ligand stays bound in the presence of the test substance.

Structures are written as SMILES.

As a reminder, the IC50 is the concentration that gives 50% inhibition. For `CCN(c1ccccc1)c1ccc(NC(=O)C2CC(=O)N(c3cc(C)ccc3C)C2)cc1` (racemic) [rac. N-[4-(Ethylphenylamino)phenyl]-1-(2,5-dimethylphenyl)-5-oxopyrrolidine-3-carboxamide], the IC50 turned out to be 17 nM.
In the case of `CCn1c2ccccc2c2cc(NC(=O)C3CC(=O)N(Cc4cccs4)C3)ccc21` (racemic) [rac. N-(9-Ethyl-9H-carbazol-3-yl)-5-oxo-1-thiophen-2-ylmethylpyrrolidine-3-carboxamide], the IC50 is 10 nM.
Regarding `CCn1c2ccccc2c2cc(NC(=O)C3CC(=O)N(c4cc(OC)ccc4C)C3)ccc21` (racemic) [rac. N-(9-Ethyl-9H-carbazol-3-yl)-1-(5-methoxy-2-methylphenyl)-5-oxopyrrolidine-3-carboxamide], the IC50 was 10 nM.
Take `CCn1c2ccccc2c2cc(NC(=O)C3CC(=O)N(CCc4ccccc4)C3)ccc21` (racemic) [rac. N-(9-Ethyl-9H-carbazol-3-yl)-5-oxo-1-phenethylpyrrolidine-3-carboxamide]: the half-maximal inhibitory concentration (IC50) was 12 nM.
Regarding `Cc1ccc(C)c(N2CC(C(=O)Nc3ccc(N(C)c4nc(C)cc(C)n4)cc3)CC2=O)c1` (racemic) [rac. N-{4-[(4,6-Dimethylpyrimidin-2-yl)methylamino]phenyl}-1-(2,5-dimethylphenyl)-5-oxopyrrolidine-3-carboxamide], the IC50 turned out to be 20 nM.
Then `Cc1cc(C)nc(Nc2ccc(NC(=O)C3CC(=O)N(C4Cc5ccccc5C4)C3)cc2)n1` (racemic) [rac. N-[4-(4,6-Dimethylpyrimidin-2-ylamino)phenyl]-1-indan-2-yl-5-oxopyrrolidine-3-carboxamide], with 30 nM; and `CCn1c2ccccc2c2cc(NC(=O)C3CC(=O)N(Cc4ccc(OC)cc4OC)C3)ccc21` (racemic) [rac. N-(9-Ethyl-9H-carbazol-3-yl)-1-(2,4-dimethoxybenzyl)-5-oxopyrrolidine-3-carboxamide], with 20 nM.
Take `CCn1c2ccccc2c2cc(NC(=O)C3CC(=O)N(c4ccc(C(C)C)cc4)C3)ccc21` (racemic) [rac. N-(9-Ethyl-9H-carbazol-3-yl)-1-(4-isopropylphenyl)-5-oxopyrrolidine-3-carboxamide]: the concentration for half-maximal inhibition (IC50) stood at 30 nM.
With `CCn1c2ccccc2c2cc(NC(=O)C3CC(=O)N(CCN4CCOCC4)C3)ccc21` (racemic) [rac. N-(9-Ethyl-9H-carbazol-3-yl)-1-(2-morpholin-4-ylethyl)-5-oxopyrrolidine-3-carboxamide], the IC50 is 10 nM.
With `Cc1ccc(C)c(N2CC(C(=O)Nc3ccc(C(C)C)cc3)CC2=O)c1` (racemic) [rac. N-(4-Isopropylphenyl)-1-(2,5-dimethylphenyl)-5-oxopyrrolidine-3-carboxamide], the IC50 came to 45 nM.
Consider `COc1ccc(C)c(N2CC(C(=O)Nc3ccc(Nc4nc(C)cc(C)n4)cc3)CC2=O)c1` (racemic) [rac. N-[4-(4,6-Dimethylpyrimidin-2-ylamino)phenyl]-1-(5-methoxy-2-methylphenyl)-5-oxopyrrolidine-3-carboxamide], for which the IC50 was 26 nM.
`CCN(CCO)c1ccc(NC(=O)C2CC(=O)N(c3cc(C)ccc3C)C2)cc1` (racemic) [rac. N-{4-[Ethyl-(2-hydroxyethyl)amino]phenyl}-1-(2,5-dimethylphenyl)-5-oxopyrrolidine-3-carboxamide]: the half-maximal inhibitory concentration (IC50) was 16 nM.
Regarding `CCn1c2ccccc2c2cc(NC(=O)C3CC(=O)N(CCc4ccccn4)C3)ccc21` (racemic) [rac. N-(9-Ethyl-9H-carbazol-3-yl)-5-oxo-1-(2-pyridin-2-ylethyl)pyrrolidine-3-carboxamide], the IC50 was 3 nM.
As for `CC(C)c1ccccc1N1CC(C(=O)Nc2ccc(N(C)c3ccccc3)cc2)CC1=O` (racemic) [rac. N-[4-(Methylphenylamino)phenyl]-1-(2-isopropylphenyl)-5-oxopyrrolidine-3-carboxamide], the IC50 amounted to 20 nM.
